Test results: patent publication US6037333A, “Microbe-inhibiting compositions” (Trustees of Tufts College, priority 1998, dated 2000)
Entries after “also recorded” stand apart in the source; their conditions may differ. Like-named read-outs stand apart in the source and are kept apart here.

How the values were obtained:
[1] = biological target: proteinases P1, P2, P3, P4; assay: Zymography with proteinase inhibitors, components P1-P4; format: biochemical, Acanthamoeba; conditions: inhibitor 1 mM
Experimental: (§1) To characterize the mechanism by which the mannose-mediated host-parasite interactions influence the amoeba-induced cytolysis and/or cytopathic effect, conditioned media obtained by incubating amoebae with primary cultures of corneal epithelium in the presence and absence of α-Man for 6 to 8 hours were analyzed by zymography. Media conditioned by only Acanthamoeba or only epithelial cells were also analyzed. Zymography was performed using separating gels containing 10% acrylamide and 2 mg/ml gelatin, essentially as described by D. E. Kleiner et al. (Anal Biochem. 218:325-329, 1994). Samples were diluted in the electrophoresis sample buffer (U. K. Laemmli, Nature 227:680-685, 1970) without mercaptoethanol and were applied to the gels. After electrophoresis, proteinases separated on the gels were renatured by incubating the gels in 2.5% Triton X-100 in 50 mM Tris-HCl, pH 7.5 to remove SDS. After incubating the gels for 18 hours in a developing buffer (50 mM Tris-HCl, pH 7.5 containing 10 mM CaCl2), the gels were stained with Coomassie brilliant blue. Areas of digestion were visualized as non-staining regions. In some experiments, samples were pre-treated with phenylmethylsulfonyl fluoride (PMSF, 1 mM), an inhibitor of […] for one hour prior to electrophoresis, or 1,10-phenanthroline (1 mM), an inhibitor of metalloproteinases, was added to the developing buffer.

proteinases E1, E2 = assay: Zymography with proteinase inhibitors, media conditioned by epithelial cells alone; format: biochemical, rabbit; conditions: inhibitor 1 mM
Experimental: as §1

[2] = biological target: mannose binding protein (MBP) of Acanthamoeba (Acanthamoeba castellanii, UniProt Q6J288); assay: Solid-phase assay of 35S-labeled Acanthamoeba binding to Man-BSA coated wells; design: species or system Acanthamoeba strain MEEI 0184 (A. castellani); conditions: for Inhibition of Acanthamoeba binding to Man-BSA: at 100 mM; for Inhibition of amoebic binding to Man-BSA / affinity of amoebic lectin: no concentration stated
Text: The Acanthamoeba strain MEEI 0184 (A. castellani based on morphological characteristics) was derived from an infected human cornea and used throughout this study. ATCC strain 30868 should have similar properties. The parasites were axenically cultured in PYG medium. A solid-phase assay characterized the sugar binding properties of the mannose binding protein (MBP) of Acanthamoeba (Z. Yang et al., Infect. Immun. 65:439-445, 1997). Briefly, wells of microtiter plates were coated with bovine serum albumin-α-D-mannopyranosyl phenylisothiocyanate (Man-BSA, 15-25 moles of α-D-mannopyranoside/mole albumin, 0.03 μg/ml, 50μl/well in 0.1 M sodium carbonate buffer, pH 9.6, 4° C. overnight). Nonspecific binding was blocked with 1% BSA in phosphate buffered saline (PBS, 1 hour, room temperature). After adding a 50-μl aliquot of ^35 S-labeled Acanthamoeba (5×10^6 cells/ml in PBS; 1 to 2 cpm/parasite, >95% trophozoites) to each well, the plates were incubated for 2 hours at room temperature. After rinsing the cells with PBS to remove unbound Acanthamoeba, 0.1 ml of 2% sodium dodecyl sulfate (SDS) was added to each well, and the radioactivity in aliquots of solubilized material was determined in a scintillation counter.

Acanthamoeba [3] = assay: Acanthamoeba-induced cytopathic effect (CPE) assay, immortalized corneal epithelial cultures; format: cell-based; conditions: for Inhibition of amoeba-induced CPE: no concentration stated; for inhibition at 50000 µM: at 50 mM; for inhibition at 310 µM: at 0.31 mM
Experimental: Corneal epithelial cells with extended life span were also produced.
(§2) To characterize the role of carbohydrate-mediated host-parasite interactions in the Acanthamoeba-induced cytotoxicity of host cells, in vitro cytopathic assays were performed using both primary and immortalized cultures of corneal epithelium as host cells. Immortalized cells were assayed as confluent cultures in 24-well plates, and primary cells were assayed as confluent cells in 35-mm dishes or 6-well plates.
(§3) The plates were incubated at 37° C. in a CO2 incubator and periodically examined under a phase-contrast microscope for the presence of cell-free plaques in the monolayer for up to 28-30 hours. Control wells contained host cells without the parasites. At the end of the incubation period, the cultures were stained with Giemsa (Diff-Quik, Dade Diagnostic Inc., Aguada, PR). Approximate cell density in each well was estimated by scanning the stained plates in a calibrated, computer-assisted Bio-Image Scanner (Millipore, Ann Arbor, Mich.). Cytopathic effect (CPE) was expressed as percentage of the optical density by the following formula: [formula]
The CPE assays were performed in the SFB media containing one or more saccharides to be tested.
After staining with Giemsa, percent cell loss in each well was calculated based on the optical density in each well.

Acanthamoeba [4] = assay: Acanthamoeba-induced CPE assay, primary cultures of corneal epithelium; format: cell-based; conditions: primary cultures as target cells
Experimental: In vitro cytopathic assays were performed using cell cultures of corneal epithelium as target cells. Primary cell cultures of rabbit corneal epithelium were prepared according to published protocols (M. M. Jumblatt, Invest. Opthalmol. Visual Sci. 24:1139-43, 1983) using rabbit eyes from Pel-Freez Biologicals (N. Panjwani et al., Invest. Opthalmol. Visual Sci. 31:689-695, 1990) (Rogers, AK). Generally, seventy-five eyes were processed at a time. Primary cultures have limited life span and can only be passaged 2 to 3 times without significant alteration in cell morphology.
as §2
as §3, with “The parasites (>95% trophozoites) were rinsed three times in a serum-free Eagle's minimum essential medium supplemented with 0.4% bovine serum albumin (SFB) and aliquots of the parasite suspension (0.2×10^5 to 1×10^6 parasites/ml SFB medium, 300 μl/well for 24-well plates and 500 μl/well for 6-well plates or 35-mm dishes) were added to wells of confluent epithelial cultures which had been rinsed and preincubated in SFB medium for 2 hours. The” for “The”
Primary cultures were less susceptible to amoeba-induced CPE, requiring 1×10^6 parasites/ml to completely destroy the monolayer within 24 hours. This parasite concentration was five times higher than that required to produce the same effect when immortalized cultures were used as target host cells.

[5] = Acanthamoeba, in Oryctolagus cuniculus, read-out: Inhibition of cytopathic effect (% inhib. at indicated conc.)

Chain of mannose binding protein (MBP) of Acanthamoeba (Q6J288 entry or part of it): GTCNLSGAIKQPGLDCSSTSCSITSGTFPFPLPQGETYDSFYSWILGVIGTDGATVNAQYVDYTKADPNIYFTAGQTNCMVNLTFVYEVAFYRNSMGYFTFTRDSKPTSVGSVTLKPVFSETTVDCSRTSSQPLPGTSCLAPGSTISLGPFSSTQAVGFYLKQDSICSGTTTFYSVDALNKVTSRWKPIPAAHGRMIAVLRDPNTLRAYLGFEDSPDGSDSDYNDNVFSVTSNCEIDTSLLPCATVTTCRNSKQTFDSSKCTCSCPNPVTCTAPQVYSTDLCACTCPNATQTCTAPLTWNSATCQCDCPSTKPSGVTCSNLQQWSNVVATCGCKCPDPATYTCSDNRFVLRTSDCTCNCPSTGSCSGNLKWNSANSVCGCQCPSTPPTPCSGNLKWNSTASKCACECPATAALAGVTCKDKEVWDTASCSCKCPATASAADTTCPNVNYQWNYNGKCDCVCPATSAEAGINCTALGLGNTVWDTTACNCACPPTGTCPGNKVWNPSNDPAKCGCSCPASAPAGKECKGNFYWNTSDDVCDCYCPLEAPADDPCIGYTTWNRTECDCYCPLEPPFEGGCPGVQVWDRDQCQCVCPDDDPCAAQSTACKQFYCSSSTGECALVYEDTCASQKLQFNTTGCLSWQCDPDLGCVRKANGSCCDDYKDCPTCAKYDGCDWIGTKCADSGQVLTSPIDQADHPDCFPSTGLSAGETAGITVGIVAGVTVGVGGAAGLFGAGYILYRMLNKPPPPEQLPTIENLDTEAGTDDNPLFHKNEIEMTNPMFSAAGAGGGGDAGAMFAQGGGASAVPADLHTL

c1cnc2c(c1)ccc1cccnc12 [1,10-phenanthroline]
Susceptibility of component P1 (230 kD) to inhibitor [1]: resistant
Susceptibility of component P2 (97 kD) to inhibitor [1]: resistant
Susceptibility of component P3 (80 kD) to inhibitor [1]: susceptible
Susceptibility of component P4 (55 kD) to inhibitor [1]: resistant
Susceptibility of component E1 (93 kD) to inhibitor (proteinases E1, E2): susceptible
Susceptibility of component E2 (63 kD) to inhibitor (proteinases E1, E2): susceptible

OC[C@H]1OC(O)[C@@H](O)[C@H](O)[C@@H]1O (stereo partly drawn) [D-altrose]
Inhibition of Acanthamoeba binding to Man-BSA [2]: did not inhibit
Inhibition of amoebic binding to Man-BSA / affinity of amoebic lectin [2]: not inhibitory
Inhibition of amoeba-induced cytopathic effect (Acanthamoeba [3]): did not inhibit

OC1OC[C@@H](O)[C@H](O)[C@@H]1O (stereo partly drawn) [D-lyxose]
Inhibition of Acanthamoeba binding to Man-BSA [2]: did not inhibit
Inhibition of amoebic binding to Man-BSA / affinity of amoebic lectin [2]: lack of inhibitory activity; also recorded: no affinity
Inhibition of amoeba-induced cytopathic effect (Acanthamoeba [3]; at 100 mM): did not inhibit

OC[C@@H](O)[C@@H](O)[C@H](O)[C@H](O)CO [D-mannitol]
Inhibition of Acanthamoeba binding to Man-BSA [2]: did not inhibit
Inhibition of amoebic binding to Man-BSA / affinity of amoebic lectin [2]: did not inhibit
Inhibition of amoeba-induced cytopathic effect (Acanthamoeba [3]; at 100 mM): did not inhibit
Inhibition of amoeba-induced CPE (Acanthamoeba [3]): did not inhibit

O=P(O)(O)OC[C@H]1OC(O)[C@@H](O)[C@@H](O)[C@@H]1O (stereo partly drawn) [D-mannose-6-phosphate]
Inhibition of Acanthamoeba binding to Man-BSA [2]: did not inhibit; also recorded: No inhibition
inhibition at 50000 µM (Acanthamoeba [3]; [5]): 30%
Inhibition of amoeba-induced cytopathic effect (Acanthamoeba [3]; at 100 mM): did not inhibit

OC[C@H]1OC(O)[C@@H](O)[C@@H](O)[C@@H]1O (stereo partly drawn) [D-mannose]
inhibition at 5000 µM (Acanthamoeba [3]; [5]): 50%

OC[C@@H]1OC(O)[C@H](O)[C@H](O)[C@H]1O (stereo partly drawn) [L-mannose]
Inhibition of Acanthamoeba binding to Man-BSA [2]: did not inhibit
Inhibition of amoeba-induced cytopathic effect (Acanthamoeba [3]): did not inhibit

C[C@@H]1OC(O)[C@H](O)[C@H](O)[C@H]1O (stereo partly drawn) [L-rhamnose]
Inhibition of Acanthamoeba binding to Man-BSA [2]: did not inhibit
Inhibition of amoeba-induced cytopathic effect (Acanthamoeba [3]; at 100 mM): did not inhibit

OCC1OC(OC2C(O)C(CO)OC(OCC3OC(OC4C(O)C(CO)OC(OCC5OC(O)C(O)C(O)C5O)C4O)C(O)C(O)C3O)C2O)C(O)C(O)C1O (stereo not drawn) [Man(α1-3)Man(α1-6)Man-(α1-3)Man(α1-6)Man]
Inhibition of amoebic binding to Man-BSA / affinity of amoebic lectin [2]: potent inhibitors
Inhibition of amoeba-induced CPE (Acanthamoeba [3]): potent inhibitors
Inhibition of amoeba-induced CPE (Acanthamoeba [4]): inhibited CPE

OCC1OC(OC2C(O)C(CO)OC(OCC3OC(O)C(O)C(O)C3O)C2O)C(O)C(O)C1O (stereo not drawn) [Man(α1-3)Man(α1-6)Man]
Inhibition of amoebic binding to Man-BSA / affinity of amoebic lectin [2]: potent inhibitors
inhibition at 310 µM (Acanthamoeba [3]; [5]): 100%
Inhibition of amoeba-induced CPE (Acanthamoeba [3]): potent inhibitors
Inhibition of amoeba-induced CPE (Acanthamoeba [4]): inhibited CPE

OC[C@H]1O[C@H](O[C@H]2[C@H](O)[C@@H](CO)OC(O)[C@H]2O)[C@@H](O)[C@@H](O)[C@@H]1O (stereo partly drawn) [Man(α1-3)Man]
Relative inhibitory potency in binding to Man-BSA ([2]; comparator named in the value): three times more potent than the corresponding α-1-6 disaccharide
inhibition at 310 µM (Acanthamoeba [3]; [5]): 91%

OC[C@H]1O[C@H](OC[C@H]2OC(O)[C@@H](O)[C@@H](O)[C@@H]2O)[C@@H](O)[C@@H](O)[C@@H]1O (stereo partly drawn) [Man(α1-6)Man]
inhibition at 310 µM (Acanthamoeba [3]; [5]): 80%

CO[C@H]1O[C@H](CO)[C@@H](O)[C@H](O)[C@H]1O [Methyl-α-D-glucopyranoside]
Inhibition of amoebic binding to Man-BSA / affinity of amoebic lectin [2]: poor inhibitors
inhibition at 100000 µM ([2]; read-out: Inhibition of binding, % at indicated conc.): 40%
inhibition at 50000 µM (Acanthamoeba [3]; [5]): 31%
Inhibition of amoeba-induced CPE (Acanthamoeba [3]): poor inhibitors

CC(=O)N[C@H]1C(O)O[C@H](CO)[C@H](O)[C@@H]1O (stereo partly drawn) [N-acetyl-D-galactosamine]
Inhibition of Acanthamoeba binding to Man-BSA [2]: did not inhibit
Inhibition of amoeba-induced cytopathic effect (Acanthamoeba [3]; at 100 mM): did not inhibit

CC(=O)N[C@@H]1C(O)O[C@H](CO)[C@@H](O)[C@@H]1O (stereo partly drawn) [N-acetyl-D-mannosamine]
Inhibition of Acanthamoeba binding to Man-BSA [2]: did not inhibit
Inhibition of amoebic binding to Man-BSA / affinity of amoebic lectin [2]: did not inhibit
Inhibition of amoeba-induced cytopathic effect (Acanthamoeba [3]; at 100 mM): did not inhibit
Inhibition of amoeba-induced CPE (Acanthamoeba [3]): did not inhibit

OC[C@H]1OC(O)[C@H](O)[C@@H](O)[C@@H]1O (some centres unmarked) [glucose]
Inhibition of amoebic binding to Man-BSA / affinity of amoebic lectin [2]: weak inhibitor

CO[C@H]1O[C@H](CO)[C@H](O)[C@H](O)[C@H]1O [methyl-α-D-galactopyranoside]
Inhibition of Acanthamoeba binding to Man-BSA [2]: did not inhibit
Inhibition of amoebic binding to Man-BSA / affinity of amoebic lectin [2]: did not inhibit
Inhibition of amoeba-induced cytopathic effect (Acanthamoeba [3]; at 100 mM): did not inhibit
Inhibition of amoeba-induced CPE (Acanthamoeba [3]): did not inhibit
Inhibition of amoeba-induced CPE (Acanthamoeba [4]): did not inhibit CPE

CO[C@@H]1O[C@H](CO)[C@H](O)[C@H](O)[C@H]1O [methyl-β-D-galactopyranoside]
Inhibition of Acanthamoeba binding to Man-BSA [2]: did not inhibit
Inhibition of amoebic binding to Man-BSA / affinity of amoebic lectin [2]: did not inhibit
Inhibition of amoeba-induced cytopathic effect (Acanthamoeba [3]; at 100 mM): did not inhibit
Inhibition of amoeba-induced CPE (Acanthamoeba [3]): did not inhibit
Inhibition of amoeba-induced CPE (Acanthamoeba [4]): did not inhibit CPE

CO[C@@H]1O[C@H](CO)[C@@H](O)[C@H](O)[C@H]1O [methyl-β-D-glucopyranoside]
Inhibition of Acanthamoeba binding to Man-BSA [2]: did not inhibit
Inhibition of amoeba-induced cytopathic effect (Acanthamoeba [3]; at 100 mM): did not inhibit

OC[C@H]1O[C@H](O)[C@@H](O)[C@@H](O)[C@H]1O [α-D-talose]
Inhibition of Acanthamoeba binding to Man-BSA [2]: did not inhibit
Inhibition of amoebic binding to Man-BSA / affinity of amoebic lectin [2]: not inhibitory
Inhibition of amoeba-induced cytopathic effect (Acanthamoeba [3]; at 100 mM): did not inhibit

C[C@@H]1O[C@@H](O)[C@@H](O)[C@H](O)[C@@H]1O [α-L-Fucose]
Inhibition of amoebic binding to Man-BSA / affinity of amoebic lectin [2]: poor inhibitors; also recorded: weak inhibitor
Inhibition of amoebic binding to Man-BSA / affinity of amoebic lectin ([2]; listed as α-fucose): weak inhibitors
inhibition at 100000 µM (Acanthamoeba [3]; Acanthamoeba, in Oryctolagus cuniculus, at 100 mM, read-out: Inhibition of cytopathic effect (% inhib. at indicated conc.)): 40%
Inhibition of amoeba-induced CPE (Acanthamoeba [3]): poor inhibitors; also recorded: weak inhibitor
Inhibition of amoeba-induced CPE (Acanthamoeba [4]): not inhibitory
